Common to all, as to test: NCI anticancer screen, dose series, 48 h
The subject of experiment [1] is HCC-2998 colon.
For experiment [2], the system named is HL-60(TB) leukemia.
The subject of experiment [3] is OVCAR-5 ovarian.
In experiment [4] the test system is UACC-62 melanoma.
The test system of experiment [5] is 786-0 renal.
The test system of experiment [6] is TK-10 renal.
Experiment [7] concerns NCI-H226 lung.
The test system of experiment [8] is NCI/ADR-RES ovarian.
The subject of experiment [9] is SN12C renal.
The test system of experiment [10] is HOP-62 NSCLC.
For experiment [11], the system named is PC-3 prostate.
The test system of experiment [12] is MDA-MB-435.

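Growth conditions: 96-well plates. Treatment: test compound, 48 hours, 5 concentrations. Analysis: linear interpolation between bracketing concentrations; unreached endpoints set to highest concentration. TGI: total growth inhibition.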

In the case of `N#CS/C(Cl)=C(/C(Cl)=C(Cl)Cl)[N+](=O)[O-]`, the TGI in experiment [1] was over 100 µM; in [2], over 100 µM; in [3], over 100 µM; in [4], over 100 µM; in experiment [5] it was 76.4 µM; in experiment [6], over 100 µM. The TGI is over 100 µM in experiment [7]; 98.1 µM in experiment [8]; over 100 µM in [9]; over 100 µM in experiment [10]; over 100 µM in [11].
With `Cc1ccc(S(=O)(=O)N2CCCCN(S(=O)(=O)c3ccc(C)cc3)Cc3ccccc3OCCOCCOc3c4cccc3Cc3cccc5c3OCCOCCOc3ccccc3CN(S(=O)(=O)c3ccc(C)cc3)CCCN(S(=O)(=O)c3ccc(C)cc3)Cc3ccccc3OCCOCCOc3c(cccc3C4)Cc3cccc(c3OCCOCCOc3ccccc3C2)C5)cc1`, the TGI in experiment [1], in experiment [3], in experiment [4], in [12], in experiment [5] and in [6] was over 100 µM throughout. Further, the TGI in experiment [7], in experiment [8], in [9], in experiment [10] and in experiment [11] was over 100 µM in each case.
In the case of `O=C1CCCc2cc3c(cc21)CCC3C(=O)O` (configuration not stated), the TGI in experiment [1], in experiment [2], in [3], in experiment [4], in experiment [5] and in experiment [6] was over 100 µM in each case. The TGI in [7], in experiment [8], in experiment [9], in experiment [10] and in experiment [11] was over 100 µM in each case.
Consider `CNC(=O)CCNC(=O)CCC(=O)OC`, for which the TGI in experiment [3], in experiment [4], in [12], in [5], in experiment [6] and in [8] was over 100 µM throughout. Further, the TGI in experiment [9], in [10] and in experiment [11] was over 100 µM in each case.
Turning to `OC1CC(O)c2c(Cl)sc(Cl)c21` (configuration not stated), the TGI in experiment [2] is over 100 µM; in experiment [3], over 100 µM; in experiment [4], over 100 µM; in experiment [12], over 100 µM; in experiment [5] it was over 100 µM; in experiment [6] it was 82.3 µM. In addition, the TGI in [7] was over 100 µM; in experiment [8] it was over 100 µM; in experiment [9], over 100 µM; in [10], 98.4 µM.
With `CSc1cc(Cl)c(C)cc1S(=O)(=O)NC(=O)NNc1ccc(F)c(Cl)c1`, the TGI in [1], in experiment [3], in experiment [12], in experiment [5], in experiment [7] and in experiment [8] was over 100 µM each time. Besides, the TGI in experiment [9], in experiment [10] and in experiment [11] was over 100 µM in each case.
Consider `Cc1cc(Cl)ccc1N=NC(=O)NNc1ccc(Cl)cc1C`, for which the TGI in experiment [1] was 24.1 µM; in experiment [2], 45.8 µM; in experiment [3] it was 30.7 µM; in experiment [4], 24.8 µM; in experiment [12], 39.7 µM; in experiment [5], 29.9 µM. Moreover, the TGI in experiment [6] was determined as 38.3 µM; in experiment [7], 36.1 µM; in experiment [9], 30.1 µM; in [10], 23.9 µM; in [11] it was 22.8 µM.
As to `C=CCOCn1ccc(=O)[nH]c1=O`, the TGI in experiment [1], in [2], in [4], in [12], in [5] and in experiment [6] was over 100 µM each time. The TGI in experiment [7], in experiment [9], in experiment [10] and in [11] was over 100 µM in each case.
Consider `O=[N+]([O-])C(=C(N1CCOCC1)N1CCOCC1)/C(Cl)=C(\Cl)[N+](=O)[O-]`, for which the TGI in [1] was 39.6 µM; in experiment [3] it was 31.4 µM; in experiment [4] it was 34.8 µM; in experiment [12], 23.1 µM; in experiment [5] it was 9.76 µM; in experiment [6] it was 3.89 µM. Also, the TGI is over 100 µM in [7]; 54.2 µM in experiment [8]; 5.92 µM in [9]; 29.8 µM in [10]; 32.6 µM in [11].
With `CC(C)(C)N1NC1C1NN1C(C)(C)C` (configuration not stated), the TGI in [1], in experiment [3], in [4], in experiment [12], in experiment [5] and in experiment [6] was over 100 µM each time. Also, the TGI in experiment [7], in [8], in [9], in experiment [10] and in experiment [11] was over 100 µM throughout.
On to `COC[n+]1cc2cc(OC)c(OC)cc2c2ccc3cc(OC)c(OC)cc3c21`, for which the TGI in experiment [1], in experiment [2], in [3], in experiment [4], in [5] and in [6] was over 100 µM throughout. In addition, the TGI in [7], in [9] and in experiment [10] was over 100 µM throughout.
Regarding `COC12C=CC(CC1)C1C(=O)c3c(C)c(C)n(C)c3C(=O)C12` (configuration not stated), the TGI in experiment [3], in [4], in experiment [12], in [5], in experiment [6] and in [7] was over 100 µM throughout. The TGI in [8], in [10] and in experiment [11] was over 100 µM each time.

Values taken from PubChem BioAssay (NCI).
